Measurements from BindingDB's records for doi:10.1074/jbc.M113.518506 (Rudjer Boskovic Institute, 2013).

Each molecule was assayed against T1, Solute carrier organic anion transporter family member [3-691] (Zebrafish, UniProt A0A0R4IW35) (assay: Oatp1d1 Transport Assay).
T1 construct: 3-691
T1 sequence (A0A0R4IW35 whole entry): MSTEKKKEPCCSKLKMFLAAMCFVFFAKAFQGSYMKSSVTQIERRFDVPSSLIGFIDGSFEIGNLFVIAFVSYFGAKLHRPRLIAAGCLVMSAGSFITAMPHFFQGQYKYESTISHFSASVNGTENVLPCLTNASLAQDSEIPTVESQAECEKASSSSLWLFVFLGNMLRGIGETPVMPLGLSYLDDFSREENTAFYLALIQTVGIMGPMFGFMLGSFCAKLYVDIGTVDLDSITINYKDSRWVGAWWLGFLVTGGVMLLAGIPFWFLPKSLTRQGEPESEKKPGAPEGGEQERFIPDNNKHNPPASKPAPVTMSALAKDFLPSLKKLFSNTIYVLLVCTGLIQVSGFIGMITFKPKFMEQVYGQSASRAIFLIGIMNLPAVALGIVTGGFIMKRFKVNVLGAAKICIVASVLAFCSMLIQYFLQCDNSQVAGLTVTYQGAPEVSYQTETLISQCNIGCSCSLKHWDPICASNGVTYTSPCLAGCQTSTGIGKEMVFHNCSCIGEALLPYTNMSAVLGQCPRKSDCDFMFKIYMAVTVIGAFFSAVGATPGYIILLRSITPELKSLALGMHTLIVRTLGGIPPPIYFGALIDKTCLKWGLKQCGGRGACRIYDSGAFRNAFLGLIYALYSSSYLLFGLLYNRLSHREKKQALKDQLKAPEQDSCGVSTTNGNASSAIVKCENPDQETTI
Method: (§1) In the inhibition experiments, the cells were preincubated for 20 s with test compounds, followed by a 5-min incubation with [3H]E3S (5 nM) or 30-min incubation with LY (5 μM).

`CCOC(=O)C(C)(C)Oc1ccc(Cl)cc1` [2-(4-Chlorophenoxy)-2-methylpropanoic acid ethyl ester] gave a Ki of 345 µM.

Each molecule was assayed against T2, Solute carrier organic anion transporter family member (Danio rerio, UniProt A0A8M9PU70) (assay: Oatp1d1 Transport Assay).
T2 sequence (A0A8M9PU70 whole entry): T1 sequence (A0A0R4IW35 whole entry)
Method: as §1

Going from `Cc1ccc(C)c(OCCCC(C)(C)C(=O)O)c1` [5-(2,5-dimethylphenoxy)-2,2-dimethylpentanoic acid] to `CC(C)(Oc1ccc(CCNC(=O)c2ccc(Cl)cc2)cc1)C(=O)O` [Cedur], the Ki rises from 7.44 µM to 40.4 µM (5.4-fold).

Compared with `CC(=O)C[C@H](c1ccccc1)c1c(O)c2ccccc2oc1=O` [2-hydroxy-3-(3-oxo-1-phenylbutyl)-4H-chromen-4-one], `N[C@@H](Cc1cc(I)c(Oc2ccc(O)c(I)c2)c(I)c1)C(=O)O` [triothyrone] is 120-fold higher in Ki: 0.36 µM for the first, 42.7 µM for the second. The first binds more tightly here.

`C=CC1=C(C)/C(=C/c2[nH]c(Cc3[nH]c(/C=C4\NC(=O)C(C)=C4C=C)c(C)c3CCC(=O)O)c(CCC(=O)O)c2C)NC1=O` [BILIRUBIN] and `CO[C@H]1/C=C/O[C@@]2(C)Oc3c(C)c(O)c4c(c3C2=O)C(=O)/C(=C/NN2CCN(C)CC2)C(=C4O)NC(=O)/C(C)=C\C=C\[C@H](C)[C@H](O)[C@@H](C)[C@@H](O)[C@@H](C)[C@H](OC(C)=O)[C@@H]1C` [Rifampicin] are within 1.5-fold of each other in Ki: 14.5 µM for the first, 12.7 µM for the second.

First: C[C@]12CC[C@@H]3c4ccc(OS(=O)(=O)O)cc4CC[C@H]3[C@@H]1CCC2=O [Estrone Sulphate]
Second: C[C@]12CC[C@@H]3c4ccc(O)cc4CC[C@H]3[C@@H]1CC[C@@H]2O [[2,4,6,7-3H]-17beta-estradiol]
The Ki of the first is 2.8-fold lower: 1.01 µM for the first, 2.83 µM for the second. The first binds more tightly here.

Going from `CN(Cc1cnc2nc(N)nc(N)c2n1)c1ccc(C(=O)N[C@@H](CCC(=O)O)C(=O)O)cc1` [MTX] to `CCCN(CCC)S(=O)(=O)c1ccc(C(=O)O)cc1`, the Ki falls from 222 µM to 26 µM (8.5-fold).

Compared with `C[C@H](CCC(=O)O)[C@H]1CC[C@H]2[C@@H]3CC[C@@H]4C[C@H](O)CC[C@]4(C)[C@H]3C[C@H](O)[C@]12C` [Deoxycholic Acid], `C[C@H](CCC(=O)O)[C@H]1CC[C@H]2[C@@H]3[C@H](O)C[C@@H]4C[C@H](O)CC[C@]4(C)[C@H]3C[C@H](O)[C@]12C` [Cholic Acid] is 14-fold higher in Ki: 9.94 µM for the first, 141 µM for the second. The first binds more tightly here.

First: CC(=O)[C@H]1CC[C@H]2[C@@H]3CCC4=CC(=O)CC[C@]4(C)[C@H]3CC[C@]12C
Second: C[C@]12CC[C@H]3[C@@H](CCC4=CC(=O)CC[C@@]43C)[C@@H]1CC[C@@H]2O [Testosterone, 1]
The Ki of the first is 3.3-fold lower: 9.06 µM for the first, 30 µM for the second.

First: CC[C@H]1OC(=O)[C@H](C)[C@@H](O[C@H]2C[C@@](C)(OC)[C@@H](O)[C@H](C)O2)[C@H](C)[C@@H](O[C@@H]2O[C@H](C)C[C@H](N(C)C)[C@H]2O)[C@](C)(O)C[C@@H](C)C(=O)[C@H](C)[C@@H](O)[C@]1(C)O
Second: C[C@]12CC[C@@H]3c4ccc(O)cc4CC[C@H]3[C@@H]1CC[C@@H]2O[C@@H]1O[C@H](C(=O)O)[C@@H](O)[C@H](O)[C@H]1O [17beta-Estradiol-17-(beta-D-glucuronide)]
The Ki of the first is 270-fold higher: 882 µM for the first, 3.26 µM for the second.

`C[C@]12CCC(=O)C=C1CC[C@@H]1[C@@H]2[C@@H](O)C[C@@]2(C)[C@H]1CC[C@]2(O)C(=O)CO` [[3H]cortisol] and `C[C@]12C[C@H](O)[C@H]3[C@@H](CCC4=CC(=O)CC[C@@]43C)[C@@H]1CC[C@@H]2C(=O)CO` [11beta,21-dihydroxypregn-4-ene-3,20-dione] are within 1.5-fold of each other in Ki: 120 µM for the first, 105 µM for the second.

First: C[C@H](CCC(=O)NCCS(=O)(=O)O)[C@H]1CC[C@H]2[C@@H]3[C@H](O)C[C@@H]4C[C@H](O)CC[C@]4(C)[C@H]3CC[C@]12C
Second: C[C@]12CCC(=O)C[C@@H]1CC[C@@H]1[C@@H]2CC[C@]2(C)[C@@H](O)CC[C@@H]12 [DHT]
The Ki of the first is 6.9-fold lower: 3.4 µM for the first, 23.4 µM for the second.

Compared with `C[C@]12CCC(=O)C=C1CC[C@@H]1[C@@H]2CC[C@]2(C)C(=O)CC[C@@H]12` [Androst-4-en-3,17-dione, 2], `CC[C@H](C)C(=O)O[C@H]1C[C@H](O)C=C2C=C[C@H](C)[C@H](CC[C@@H](O)C[C@@H](O)CC(=O)O)[C@H]21` [(3R,5R)-7-[(1S,2S,6S,8S,8aR)-6-hydroxy-2-methyl-8-{[(2S)-2-methylbutanoyl]oxy}-1,2,6,7,8,8a-hexahydronaphthalen-1-yl]-3,5-dihydroxyheptanoic acid] is 2.5-fold higher in Ki: 3.78 µM for the first, 9.27 µM for the second. The first binds more tightly here.

Going from `CCCCC[C@H](O)/C=C/[C@H]1[C@H](O)CC(=O)[C@@H]1C/C=C\CCCC(=O)O` [DINOPROSTONE] to `O=C1OC(c2ccc(O)c(S(=O)(=O)O)c2)(c2ccc(O)c(S(=O)(=O)O)c2)c2c(Br)c(Br)c(Br)c(Br)c21` [BROMOSULFOPHTHALEIN], the Ki falls from 227 µM to 2.99 µM (76-fold).

For `CC(C)OC(=O)C(C)(C)Oc1ccc(C(=O)c2ccc(Cl)cc2)cc1` [Finofibrate], the Ki was 54.4 µM.
